Experimental data published in PubChem BioAssay (NCI).
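Cultured in 96-well plates, cells were exposed to test compound for 48 hours across five concentrations. GI50 marks 50% less growth. TGI: total growth inhibition.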

Legend:
Assay in all cases: NCI anticancer screen, dose series, 48 h
COLO 205 colon = system: COLO 205 colon
HCC-2998 colon = system: HCC-2998 colon
SK-MEL-28 melanoma = system: SK-MEL-28 melanoma
SK-MEL-2 melanoma = system: SK-MEL-2 melanoma
SNB-75 CNS = system: SNB-75 CNS
SF-295 CNS = system: SF-295 CNS
A549 NSCLC = system: A549 NSCLC
A498 renal = system: A498 renal
HS 578T breast = system: HS 578T breast
MDA-MB-231 breast = system: MDA-MB-231 breast

| Structure (SMILES) | TGI (COLO 205 colon) | TGI (HCC-2998 colon) | TGI (SK-MEL-28 melanoma) | TGI (SK-MEL-2 melanoma) | TGI (SNB-75 CNS) | TGI (SF-295 CNS) | TGI (A549 NSCLC) | TGI (A498 renal) | TGI (HS 578T breast) | TGI (MDA-MB-231 breast) | GI50 (COLO 205 colon) | GI50 (SK-MEL-28 melanoma) | GI50 (HS 578T breast) | GI50 (SK-MEL-2 melanoma) | GI50 (SNB-75 CNS) | GI50 (SF-295 CNS) | GI50 (A498 renal) | GI50 (A549 NSCLC) | GI50 (MDA-MB-231 breast) | GI50 (HCC-2998 colon) |
| --- | --- | --- | --- | --- | --- | --- | --- | --- | --- | --- | --- | --- | --- | --- | --- | --- | --- | --- | --- | --- |
| Cc1cc2cc(Cl)ccc2nc1C(=O)c1ccccc1 | > 100 µM | > 100 µM | > 100 µM | > 100 µM | 81.9 µM | > 100 µM | > 100 µM | – | – | – | – | – | – | – | – | – | – | – | – | – |
| COC(=O)CCC(=O)CC(=O)C(=O)Nc1ccc(F)cc1 | > 100 µM | > 100 µM | > 100 µM | > 100 µM | > 100 µM | – | > 100 µM | > 100 µM | – | – | – | – | – | – | – | – | – | – | – | – |
| CN(C)c1ccccc1CC(c1c[nH]c2ccccc12)c1c[nH]c2ccccc12 | 11.3 µM | 22.6 µM | – | 29.3 µM | 22 µM | 24.4 µM | 22.2 µM | 31.1 µM | – | – | – | – | – | – | – | – | – | – | – | – |
| O=C(Nc1ccc(Cl)c(Cl)c1)C(=O)Nn1c(=S)[nH]c2ccccc2c1=O | > 100 µM | > 100 µM | > 100 µM | > 100 µM | > 100 µM | > 100 µM | > 100 µM | > 100 µM | – | – | – | – | – | – | – | – | – | – | – | – |
| Cc1ccccc1N=Cc1ccc(N(CCC#N)S(=O)(=O)c2ccccc2)cc1 | > 100 µM | > 100 µM | > 100 µM | > 100 µM | > 100 µM | > 100 µM | > 100 µM | > 100 µM | – | – | – | – | – | – | – | – | – | – | – | – |
| Cc1c(/C=N/NC(=O)c2ccccc2)c(=O)n(-c2ccccc2)n1C | > 100 µM | > 100 µM | > 100 µM | > 100 µM | > 100 µM | > 100 µM | > 100 µM | > 100 µM | – | – | – | – | – | – | – | – | – | – | – | – |
| Cn1c(=O)nc2n(-c3ccc(F)cc3)c3ccccc3nc-2c1=O | 22.1 µM | 49.8 µM | – | 51.1 µM | 91.6 µM | 40.8 µM | 48.6 µM | 93.4 µM | – | – | – | – | – | – | – | – | – | – | – | – |
| CCOc1cc(C=O)c2c(ccc3ccc(OC)c(OC)c32)c1OC | > 100 µM | > 100 µM | > 100 µM | > 100 µM | > 100 µM | > 100 µM | > 100 µM | – | > 100 µM | > 100 µM | – | – | – | – | – | – | – | – | – | – |
| Cc1ccc(C2(C)NC(=S)N(NC(N)=S)C2=S)cc1 (stereo not given) | > 100 µM | > 100 µM | > 100 µM | > 100 µM | > 100 µM | > 100 µM | > 100 µM | > 100 µM | – | – | – | – | – | – | – | – | – | – | – | – |
| CC1(C)Cc2cccc(OCC(O)CN3CCN(c4ccc(F)cc4)CC3)c2O1 (stereo not given) | 26.9 µM | – | > 50 µM | > 50 µM | 34.2 µM | 39.9 µM | > 50 µM | 35.1 µM | 31.3 µM | 36 µM | 11.1 µM | 19.1 µM | 10.4 µM | 27 µM | 10.9 µM | 8.83 µM | 14 µM | 19.4 µM | 8.58 µM | – |
| CC(C)(C)C(=O)OCOP(=O)(OCOC(=O)C(C)(C)C)C1CCCN(OC(=O)c2ccccc2)C1=O (stereo not given) | 15.2 µM | 5.86 µM | 3.57 µM | 11.4 µM | 93.1 µM | – | 25.2 µM | 0.832 µM | 38.1 µM | 14.2 µM | 2.39 µM | 1.05 µM | 0.71 µM | 1.99 µM | 5.1 µM | – | 0.283 µM | 2.02 µM | 0.716 µM | 0.99 µM |
